Measured values reported in article PMC8593021, “Biophysical and functional characterization of the human TAS1R2 sweet taste receptor overexpressed in a HEK293S inducible cell line” (Scientific Reports, 2021).

B1: FLAG-tagged human TAS1R2 (taste receptor type 1, member 2) (receptor, UniProt Q8TE23 20-839, looked up)
chain: EPAENSDFYLPGDYLLGGLFSLHANMKGIVHLNFLQVPMCKEYEVKVIGYNLMQAMRFAVEEINNDSSLLPGVLLGYEIVDVCYISNNVQPVLYFLAHEDNLLPIQEDYSNYISRVVAVIGPDNSESVMTVANFLSLFLLPQITYSAISDELRDKVRFPALLRTTPSADHHIEAMVQLMLHFRWNWIIVLVSSDTYGRDNGQLLGERVARRDICIAFQETLPTLQPNQNMTSEERQRLVTIVDKLQQSTARVVVVFSPDLTLYHFFNEVLRQNFTGAVWIASESWAIDPVLHNLTELRHLGTFLGITIQSVPIPGFSEFREWGPQAGPPPLSRTSQSYTCNQECDNCLNATLSFNTILRLSGERVVYSVYSAVYAVAHALHSLLGCDKSTCTKRVVYPWQLLEEIWKVNFTLLDHQIFFDPQGDVALHLEIVQWQWDRSQNPFQSVASYYPLQRQLKNIQDISWHTINNTIPMSMCSKRCQSGQKKKPVGIHVCCFECIDCLPGTFLNHTEDEYECQACPNNEWSYQSETSCFKRQLVFLEWHEAPTIAVALLAALGFLSTLAILVIFWRHFQTPIVRSAGGPMCFLMLTLLLVAYMVVPVYVGPPKVSTCLCRQALFPLCFTICISCIAVRSFQIVCAFKMASRFPRAYSYWVRYQGPYVSMAFITVLKMVIVVIGMLATGLSPTTRTDPDDPKITIVSCNPNYRNSLLFNTSLDLLLSVVGFSFAYMGKELPTNYNEAKFITLSMTFYFTSSVSLCTFMSAYSGVLVTIVDLLVTVLNLLAISLGYFGPKCYMILFYPERNTPAYFNSMIQGYTMRRD
notes: human TAS1R2 (taste receptor type 1, member 2), UniProtKB Q8TE23, full-length protein from a codon-optimised synthetic gene; the purified protein is still detected and captured by anti-FLAG M2; Theoretical mass of FLAG-tagged hTAS1R2 printed as 96.2 kDa; In LMNG detergent; also called hTAS1R2; FLAG-hTAS1R2; not shown: FLAG, N-terminal, kept

Legend:
hTAS1R2/hTAS1R3 = biological target: T1, hTAS1R2/hTAS1R3 (Homo sapiens, UniProt Q7RTX0+Q8TE23); assay: Calcium assay (GCaMP6S) in HEK293T-Gα16gust44 cells transfected with hTAS1R2-FLAG and hTAS1R3-FLAG; assay type: cell-based; conditions: HEK293T-Gα16gust44 cells transiently transfected with GCaMP6S
T1 construct: expressed in transfected cells; host or cells: HEK293T cells stably expressing Gα16gust44, transiently transfected
T1 sequence (Q8TE23 20-839): B1 chain
T1 sequence (Q7RTX0 21-852): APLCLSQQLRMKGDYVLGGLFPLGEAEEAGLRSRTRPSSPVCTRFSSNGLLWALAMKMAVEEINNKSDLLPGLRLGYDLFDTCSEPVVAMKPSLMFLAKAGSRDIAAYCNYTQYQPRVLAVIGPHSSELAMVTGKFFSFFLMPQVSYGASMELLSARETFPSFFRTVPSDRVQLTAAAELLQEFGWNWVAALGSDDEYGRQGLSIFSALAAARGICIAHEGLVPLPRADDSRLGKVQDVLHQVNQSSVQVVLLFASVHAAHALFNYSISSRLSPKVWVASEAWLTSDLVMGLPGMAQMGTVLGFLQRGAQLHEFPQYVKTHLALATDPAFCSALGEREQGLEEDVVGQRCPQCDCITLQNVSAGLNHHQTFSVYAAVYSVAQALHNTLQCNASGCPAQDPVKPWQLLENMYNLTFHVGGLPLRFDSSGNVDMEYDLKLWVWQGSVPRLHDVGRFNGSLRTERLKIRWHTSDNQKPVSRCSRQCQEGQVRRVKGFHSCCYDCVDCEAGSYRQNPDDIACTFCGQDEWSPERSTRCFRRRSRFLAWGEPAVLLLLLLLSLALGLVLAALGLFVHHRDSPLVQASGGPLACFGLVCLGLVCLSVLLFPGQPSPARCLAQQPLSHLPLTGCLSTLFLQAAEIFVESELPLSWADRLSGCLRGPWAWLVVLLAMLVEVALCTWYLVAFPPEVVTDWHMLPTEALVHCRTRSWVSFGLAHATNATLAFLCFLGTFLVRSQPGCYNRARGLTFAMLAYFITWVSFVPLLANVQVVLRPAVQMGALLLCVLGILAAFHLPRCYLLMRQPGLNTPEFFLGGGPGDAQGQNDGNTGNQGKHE
Text: (§1) We used a calcium imaging assay to establish dose–response curves for the sweet taste receptor hTAS1R2/hTAS1R3 and determine EC50 values for the sweet stimuli previously tested in spectrofluorimetric experiments. We cloned the cDNAs coding hTAS1R2 and hTAS1R3 subunits into pcDNA6 and pcDNA4 expression plasmids, respectively, and we added FLAG tag to C-terminus of each construct to measure protein expression level by immunocytochemistry as described previously. HEK293T cells stably transfected with Gα16gust44 were seeded at a density of 0.35 × 10^6 cells per well into 96-well black walled, clear bottom microtiter plates (Falcon) in high-glucose DMEM supplemented with 2 mM GlutaMAX, 10% dialyzed foetal bovine serum, penicillin/streptomycin and G418 (400 µg/mL) at 37 °C and 6.3% CO2, in a humidified atmosphere. After 48 h, the cells were transiently transfected with each TAS1R subunit (60 ng/well for each plasmid) and plasmid pGP-CMV-GCaMP6S (Addgene #40753, 50 ng per well) coding for a green fluorescent protein-based calcium indicator, using Fugene HD (0.4 µL/well). After a further 24 h incubation, the cells were washed twice with buffer C1 and then stimulated with sweet tasting compounds. After excitation at 488 nm, calcium responses were recorded at 510 nm using a Molecular Devices FlexStation 3 system. Acquisition was made simultaneously from 8 wells corresponding to the range of taste solutions. We averaged the responses of 18 wells receiving the same stimulus one three independent experiments. We subtracted the mean calcium traces of mock-transfected cells stimulated with the same concentration of stimulus. Plots of the fluorescence variation amplitude versus concentration were fitted by four-parameter logistic nonlinear regression allowing us to calculate the EC50 values of activation.

hTAS1R2 [1] = biological target: T2, hTAS1R2 (Homo sapiens, UniProt Q8TE23); assay: Intrinsic tryptophan fluorescence ligand binding to purified detergent-solubilized hTAS1R2; set-up: made in house; conditions: purified FLAG-tagged hTAS1R2 0.10 µM in PBS, 0.1% LMNG, 20 °C; λex 280 nm, λem 340 nm
T2 sequence (Q8TE23 20-839): B1 chain
Experimental: Intrinsic fluorescence spectra were recorded with a Cary Eclipse spectrofluorimeter (Varian Instruments, Les Ulis, France) equipped with a Peltier temperature control unit. The temperature was maintained at 20 °C. FLAG-tagged hTAS1R2 protein (0.10 µM in PBS, 0.1% LMNG buffer) was excited at 280 nm, and the emission spectra were recorded from 300 to 400 nm, with a 10 nm bandwidth for both excitation and emission in the presence and absence of ligands. The sweetener solutions were freshly prepared in PBS-0.1% LMNG buffer. Successive aliquots of ligand solutions were added to 400 µL of the FLAG-tagged hTAS1R2 solution. […] The fluorescence measurements were corrected for bleaching and nonspecific buffer quenching. The dissociation constants (Kd) were calculated from a plot of the fluorescence intensity measured at the maximum emission wavelength (340 nm) versus the concentration of total ligand obtained with a standard nonlinear regression method using SigmaPlot software (Systat Software Inc., San Jose, CA, USA). The reported Kd values are the average of triplicate measurements performed on at least three independently purified protein samples.

hTAS1R3 = biological target: T3, hTAS1R3 (Homo sapiens, UniProt Q7RTX0); assay: Calcium assay (GCaMP6S) in HEK293T-Gα16gust44 cells transfected with hTAS1R3-FLAG alone; assay type: cell-based; conditions: HEK293T-Gα16gust44 cells transiently transfected with GCaMP6S and hTAS1R3-FLAG alone
T3 construct: expressed in transfected cells; host or cells: HEK293T cells stably expressing Gα16gust44, transiently transfected
T3 sequence (Q7RTX0 21-852): T1 sequence (Q7RTX0 21-852)
Text: as §1

hTAS1R2 [2] = biological target: T2, hTAS1R2; assay: Calcium assay (GCaMP6S) in HEK293T-Gα16gust44 cells transfected with hTAS1R2-FLAG alone; assay type: cell-based; conditions: HEK293T-Gα16gust44 cells transiently transfected with GCaMP6S and hTAS1R2-FLAG alone
Text: as §1, with “After a further 24 h incubation, the cells were washed twice with buffer C1 and then stimulated with sweet tasting compounds.” left out, “Acquisition was made simultaneously from 8 wells corresponding to the range of taste solutions. We averaged the responses of 18 wells receiving the same stimulus one three independent experiments. We subtracted the mean calcium traces of mock-transfected cells stimulated with the same concentration of stimulus.” left out

[3] = biological target: the molecule itself; assay: SEC-MALS; pooled gel filtration peak 4 (fractions 14-16) of FLAG-tagged hTAS1R2; Superdex 200 Increase 3.2/300, PBS with 0.1% LMNG, pH 7.3, 0.1 mL/min; MALS, RI and UV (280 nm) detectors; protein-detergent complexes

Molecule | EC50 (hTAS1R2/hTAS1R3) | Kd (hTAS1R2 [1]) | EC50 hTAS1R3 (hTAS1R3) | EC50 (hTAS1R2 [2]) | stoichiometry N [3]
C=C(C)C1CC=C(/C=N/O)CC1 (stereo in doubt) [Perillartine, perillartine] | 2.54 ± 0.48 µM | 373 ± 110 µM | n.r. | 61 ± 13 µM | –
CC1=CC(=O)NS(=O)(=O)O1 [Acesulfame-K, acesulfame-K] | 213 ± 59 µM | 164 ± 53 µM | n.r. | – | –
O=S(=O)(O)NC1CCCCC1 [Cyclamate-Na, cyclamate-Na] | 767 ± 83 µM | – | n.r. | – | –
COC(=O)[C@H](Cc1ccccc1)NC(=O)[C@H](CC(=O)O)NCCC(C)(C)C [Neotame, neotame] | 0.9 ± 0.09 µM | 2.78 ± 0.69 µM | n.r. | – | –
OC[C@H]1O[C@H](O[C@]2(CCl)O[C@H](CCl)[C@@H](O)[C@@H]2O)[C@H](O)[C@@H](O)[C@H]1Cl [Sucralose, sucralose] | 36 ± 2 µM | 29 ± 8 µM | n.r. | – | –
B1 | – | – | – | – | 2
